Test results published in patent publication US20210171589A1, “TRUNCATED CARTILAGE-HOMING PEPTIDES AND PEPTIDE COMPLEXES AND METHODS OF USE THEREOF” (BLAZE BIOSCIENCE, INC., priority 2018, published 2021).
Bridge positions count the residues as written; N and C are the ends. Peptide text beside a SMILES is read from it.

Tests used:
porcine pepsin = porcine pepsin (Sus scrofa, UniProt P00791); assay: Peptide resistance to proteolytic digestion by pepsin; type: in vitro ADME; settings: 50 U of porcine pepsin in simulated gastric fluid at pH 1.0, 30 minutes at 37° C.
porcine pepsin, sequence (P00791 60-385): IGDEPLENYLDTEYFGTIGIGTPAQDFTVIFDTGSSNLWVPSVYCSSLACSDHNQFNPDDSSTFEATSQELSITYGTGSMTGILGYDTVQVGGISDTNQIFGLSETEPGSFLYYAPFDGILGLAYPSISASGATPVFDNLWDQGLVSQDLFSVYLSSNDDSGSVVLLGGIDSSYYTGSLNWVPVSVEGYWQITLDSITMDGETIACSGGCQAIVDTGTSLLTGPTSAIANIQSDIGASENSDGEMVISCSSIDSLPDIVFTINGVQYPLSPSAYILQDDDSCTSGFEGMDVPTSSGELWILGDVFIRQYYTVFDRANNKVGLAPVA
Procedure: (§1) This example illustrates peptide stability under various stress conditions such as high temperature, low pH, reducing agents, and proteases. To determine resistance to high temperatures, cystine-dense peptides (CDPs) were incubated at 0.5 mM in PBS at 75° C. or 100° C. for 1 h and pelleted, and the supernatant was analyzed with reversed-phase chromatography (RPC). To determine resistance to proteolytic digestion, CDPs were mixed with 50 U of porcine pepsin, in simulated gastric fluid at pH 1.0, or 50 U of porcine trypsin in PBS, incubated for 30 minutes at 37° C. and analyzed with RPC. Oxidized and reduced forms (prepared through addition 10 mM DTT) were compared. Circular Dichroism spectroscopy was used in order to measure the secondary structure of peptides with a Jasco J-720W spectropolarimeter in a cell with a 1.0-mm path length, and CDPs were diluted into 20 mM phosphate buffer, pH 7.4, at a concentration of 15-25 μM. These conditions were expected to denature or degrade conventional globular proteins and many peptides. In TABLE 10, “high” resistance indicated a high amount of the peptide remained or was retained as unmodified under the given experimental conditions and “low” resistance indicated a low amount of the peptide remained or was retained unmodified under the given experimental conditions. […]

porcine trypsin = porcine trypsin (Sus scrofa, UniProt P00761); assay: Peptide resistance to proteolytic digestion by trypsin; type: in vitro ADME; settings: 50 U of porcine trypsin in PBS, 30 minutes at 37° C.
porcine trypsin, sequence (P00761 9-231): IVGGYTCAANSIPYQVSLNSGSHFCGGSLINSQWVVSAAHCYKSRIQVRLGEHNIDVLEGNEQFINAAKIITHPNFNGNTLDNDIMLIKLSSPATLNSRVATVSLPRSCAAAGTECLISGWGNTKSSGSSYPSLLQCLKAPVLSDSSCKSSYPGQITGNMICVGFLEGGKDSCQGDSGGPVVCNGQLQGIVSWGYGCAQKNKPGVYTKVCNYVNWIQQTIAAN
Procedure: as §1

## CC[C@H](C)[C@@H]1NC(=O)[C@@H]2CSSC[C@H](NC(=O)[C@H](CCCCN)NC(=O)[C@@H](NC(=O)[C@H](CC(N)=O)NC(=O)[C@@H](NC(=O)[C@@H]3CCCN3C(=O)[C@@H](NC(=O)CNC(=O)[C@H](CO)NC(=O)CN)C(C)C)[C@@H](C)CC)C(C)C)C(=O)N[C@@H](CCCNC(=N)N)C(=O)NCC(=O)N[C@@H](CO)C(=O)N[C@@H](CCCNC(=N)N)C(=O)N[C@@H](CC(=O)O)C(=O)N[C@H]3CSSC[C@H](NC(=O)[C@H](CCCCN)NC(=O)[C@H](CO)NC(=O)[C@H](CC(N)=O)NC1=O)C(=O)N[C@@H](Cc1c[nH]cn1)C(=O)N[C@H](C(=O)N[C@H](C(=O)N1CCC[C@H]1C(=O)O)[C@@H](C)O)CSSC[C@H](NC(=O)[C@@H]1CCCN1C(=O)[C@H](CC(=O)O)NC(=O)[C@H](CC(C)C)NC3=O)C(=O)N[C@@H](CCCCN)C(=O)N[C@@H](CCCCN)C(=O)N[C@@H](C)C(=O)NCC(=O)N[C@@H](CCSC)C(=O)N[C@@H](CCCNC(=N)N)C(=O)N[C@@H](Cc1ccccc1)C(=O)NCC(=O)N[C@@H](CCCCN)C(=O)N2 [compound 150] (H-GSGVPINVKCRGSRDCLDPCKKAGMRFGKCINSKCHCTP-OH; disulfide 10-30, 16-35, 20-37; N-terminus and C-terminus assumed)
Porcine pepsin
  Resistance to Pepsin: High
Porcine trypsin
  Resistance to Trypsin: High
